The source of these data is US11590139B2, “Substituted aminopurine compounds, compositions thereof, and methods of treatment therewith” (Signal Pharmaceuticals, LLC, priority 2014, dated 2023).

One assay deals with Lox-IMVI melanoma cell line. Briefly: Lox-IMVI anti-proliferative assay (growth inhibition, Cell Titer-Glo). It counts as cell-based, human. Particulars: Homo sapiens; IC50 activity level in the cell-based Lox-IMVI anti-proliferative assay; read-out: Activity. The essentials: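 IC50 values reflect the concentration giving 50% of DMSO-control luminescence after 72 h of treatment, fitted with a four-parameter logistic model. Cells were cultured in RPMI + 10% FBS with compound from 0.5 nM to 10 μM.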
In the case of `NC(=O)[C@H]1CC[C@@H](n2c(Nc3c(F)cc(C(F)(F)F)cc3Cl)nc3cnc(NC4CCOCC4)nc32)CC1` [Example 398, (1s,4s)-4-(8-(2-chloro-6-fluoro-4-(trifluoromethyl)phenylamino)-2-(tetrahydro-2H-pyran-4-ylamino)-9H-purin-9-yl)cyclohexanecarboxamide], the IC50 fell in the range of 0.5 to 1 µM.
For `NC(=O)[C@H]1CC[C@@H](n2c(Nc3ccc(Cl)c(F)c3F)nc3cnc(N[C@@H]4CCC[C@H](O)C4)nc32)CC1` [Example 360, (1S,4s)-4-(8-(4-chloro-2,3-difluorophenylamino)-2-((1R,3S)-3-hydroxycyclohexylamino)-9H-purin-9-yl)cyclohexanecarboxamide], the IC50 is > 1 µM.
Regarding `CC(C)Nc1ncc2nc(Nc3c(F)ccc(F)c3F)n([C@H]3CC[C@@H](C(N)=O)CC3)c2n1` [Example 98, (1s,4s)-4-(2-(isopropylamino)-8-(2,3,6-trifluorophenylamino)-9H-purin-9-yl)cyclohexanecarboxamide], the IC50 was > 1 µM.
On to `NC(=O)[C@H]1CC[C@@H](n2c(Nc3c(F)cc(Cl)cc3F)nc3cnc(N[C@H]4CCOC4)nc32)CC1` [Example 242, (1R,4s)-4-(8-(4-chloro-2,6-difluorophenylamino)-2-((S)-tetrahydrofuran-3-ylamino)-9H-purin-9-yl)cyclohexanecarboxamide], for which the IC50 was 0.5 to 1 µM.
For the compound `NC(=O)[C@H]1CC[C@@H](n2c(Nc3c(F)ccc(Cl)c3F)nc3cnc(N[C@@H]4CCC[C@H](O)C4)nc32)CC1` [Example 362, (1S,4s)-4-(8-(3-chloro-2,6-difluorophenylamino)-2-((1R,3S)-3-hydroxycyclohexylamino)-9H-purin-9-yl)cyclohexanecarboxamide], the IC50 is > 1 µM.
Consider `NC(=O)[C@H]1CC[C@@H](n2c(Nc3c(F)cc(Cl)cc3Cl)nc3cnc(N[C@@H]4CC[C@@H](O)C4)nc32)CC1` [Example 213, (1S,4s)-4-(8-(2,4-dichloro-6-fluorophenylamino)-2-((1R,3R)-3-hydroxycyclopentylamino)-9H-purin-9-yl)cyclohexanecarboxamide], for which the IC50 is 0.25 to 0.5 µM.
On the same count and under the same terms, then `NC(=O)[C@H]1CC[C@@H](n2c(Nc3c(F)cc(Cl)cc3Cl)nc3cnc(N[C@H]4C[C@H](O)C4)nc32)CC1` [Example 301, (1s,4s)-4-(8-(2,4-dichloro-6-fluorophenylamino)-2-((1r,3r)-3-hydroxycyclobutylamino)-9H-purin-9-yl)cyclohexanecarboxamide], with 0.5 to 1 µM; and `NC(=O)[C@H]1CC[C@@H](n2c(Nc3c(Cl)cc(Cl)cc3Cl)nc3cnc(N[C@H]4CCOC4)nc32)CC1` [Example 87, (1R,4s)-4-(2-((S)-tetrahydrofuran-3-ylamino)-8-(2,4,6-trichlorophenylamino)-9H-purin-9-yl)cyclohexanecarboxamide], with 0.5 to 1 µM.
On the same count and under the same terms, the value for `CC[C@H](CO)Nc1ncc2nc(Nc3c(Cl)cc(Cl)cc3Cl)n([C@H]3CC[C@@H](C(N)=O)CC3)c2n1` [Example 137, (1S,4s)-4-(2-((R)-1-hydroxybutan-2-ylamino)-8-(2,4,6-trichlorophenylamino)-9H-purin-9-yl)cyclohexanecarboxamide] was > 1 µM; that for `CC1(C)CC[C@@H](Nc2ncc3nc(Nc4c(F)cc(Cl)cc4Cl)n([C@H]4CC[C@@H](C(N)=O)CC4)c3n2)C[C@H]1O` [Example 389, (1S,4s)-4-(8-(2,4-dichloro-6-fluorophenylamino)-2-((1R,3R)-3-hydroxy-4,4-dimethylcyclohexylamino)-9H-purin-9-yl)cyclohexanecarboxamide] was > 1 µM.
On the same count and under the same terms, then `N#Cc1cc(F)c(Nc2nc3cnc(NC4CCC4)nc3n2[C@H]2CC[C@@H](C(N)=O)CC2)c(F)c1` [Example 368, (1s,4s)-4-(8-(4-cyano-2,6-difluorophenylamino)-2-(cyclobutylamino)-9H-purin-9-yl)cyclohexanecarboxamide], with 0.5 to 1 µM.
For the compound `NC(=O)[C@H]1CC[C@@H](n2c(Nc3c(Cl)cc(OC(F)(F)F)cc3Cl)nc3cnc(NC4CCOCC4)nc32)CC1` [Example 365, (1s,4s)-4-(8-(2,6-dichloro-4-(trifluoromethoxy)phenylamino)-2-(tetrahydro-2H-pyran-4-ylamino)-9H-purin-9-yl)cyclohexanecarboxamide], the IC50 is < 0.25 µM.
Same read-out and setting: the value for `C[C@@H](CO)Nc1ncc2nc(Nc3cccc(Cl)c3F)n([C@H]3CC[C@@H](C(N)=O)CC3)c2n1` [Example 172, (1R,4s)-4-(8-(3-chloro-2-fluorophenylamino)-2-((S)-1-hydroxypropan-2-ylamino)-9H-purin-9-yl)cyclohexanecarboxamide] was > 1 µM; that for `NC(=O)[C@H]1CC[C@@H](n2c(Nc3c(F)cccc3Cl)nc3cnc(N[C@@H]4CCC[C@H]4O)nc32)CC1` [Example 250, (1S,4s)-4-(8-(2-chloro-6-fluorophenylamino)-2-((1R,2R)-2-hydroxycyclopentylamino)-9H-purin-9-yl)cyclohexanecarboxamide] was > 1 µM.

The same assay, now with this note: Homo sapiens; Lox-IMVI anti-proliferative assay, IC50 activity level; read-out: Activity.
Turning to `NC(=O)[C@H]1CC[C@@H](n2c(Nc3c(F)cc(F)cc3F)nc3cnc(N[C@@H]4CCC[C@@H](O)C4)nc32)CC1` [Example 418, (1S,4s)-4-(2-((1R,3R)-3-hydroxycyclohexylamino)-8-(2,4,6-trifluorophenylamino)-9H-purin-9-yl)cyclohexanecarboxamide], the IC50 is > 1 µM.
The same measure, in the same setting: the value for `NC(=O)[C@H]1CC[C@@H](n2c(Nc3c(F)cc(F)cc3F)nc3cnc(N[C@@H]4CCC(F)(F)C4)nc32)CC1` [Example 545, (1S,4s)-4-(2-((R)-3,3-difluorocyclopentylamino)-8-(2,4,6-trifluorophenylamino)-9H-purin-9-yl)cyclohexanecarboxamide] was < 0.25 µM; that for `C[C@@H]1COCC[C@H]1Nc1ncc2nc(Nc3c(F)cc(F)cc3F)n([C@H]3CC[C@@H](C(N)=O)CC3)c2n1` [Example 533, (1S,4s)-4-(2-((3S,4R)-3-methyltetrahydro-2H-pyran-4-ylamino)-8-(2,4,6-trifluorophenylamino)-9H-purin-9-yl)cyclohexanecarboxamide] was < 0.25 µM.
As to `C[C@]1(C(N)=O)CC[C@H](n2c(Nc3c(Cl)cc(Cl)cc3Cl)nc3cnc(NC4CCCC4)nc32)CC1` [Example 490, (1r,4r)-4-(2-(cyclopentylamino)-8-(2,4,6-trichlorophenylamino)-9H-purin-9-yl)-1-methylcyclohexanecarboxamide], the IC50 is > 1 µM.

Still in this assay, the particulars now being: Homo sapiens; Lox-IMVI melanoma cell line, anti-proliferative assay; read-out: Activity (IC50 activity level).
With `Cc1ccc(S(=O)(=O)N2CCC[C@@H](Nc3ncc4nc(Nc5c(Cl)cc(C#N)cc5Cl)n([C@H]5CC[C@@H](C(N)=O)CC5)c4n3)C2)cc1` [Example 789, (1S,4s)-4-(8-(2,6-dichloro-4-cyanophenylamino)-2-((R)-1-tosylpiperidin-3-ylamino)-9H-purin-9-yl)cyclohexanecarboxamide], the IC50 was > 1 µM.
The same measure, in the same setting: then `C[C@]1(C(N)=O)CC[C@@H](n2c(Nc3c(Cl)cc(C#N)cc3Cl)nc3cnc(N[C@H]4CCOC[C@H]4F)nc32)CC1` [Example 761, (1R,4s)-4-(8-(2,6-dichloro-4-cyanophenylamino)-2-((3S,4S)-3-fluorotetrahydro-2H-pyran-4-ylamino)-9H-purin-9-yl)-1-methylcyclohexanecarboxamide], with < 0.25 µM; and `NC(=O)[C@H]1CC[C@@H](n2c(Nc3c(Cl)cc(Br)cc3Cl)nc3cnc(NC4CCC(F)(F)CC4)nc32)CC1` [Example 691, (1s,4s)-4-(8-(4-bromo-2,6-dichlorophenylamino)-2-(4,4-difluorocyclohexylamino)-9H-purin-9-yl)cyclohexanecarboxamide], with 0.5 to 1 µM; and `N#Cc1cc(Cl)c(Nc2nc3cnc(N[C@H]4CCC[C@@H](O)C4)nc3n2[C@H]2CC[C@@H](C(N)=O)CC2)c(Cl)c1` [Example 686, (1R,4s)-4-(8-(2,6-dichloro-4-cyanophenylamino)-2-((1S,3R)-3-hydroxycyclohexylamino)-9H-purin-9-yl)cyclohexanecarboxamide], with 0.5 to 1 µM.
The same measure, in the same setting: the value for `C[C@]1(C(N)=O)CC[C@@H](n2c(Nc3c(F)cc(F)cc3F)nc3cnc(N[C@H]4CC[C@H](O)C4)nc32)CC1` [Example 643, (1R,4s)-4-(2-((1S,3S)-3-hydroxycyclopentylamino)-8-(2,4,6-trifluorophenylamino)-9H-purin-9-yl)-1-methylcyclohexanecarboxamide] was 0.5 to 1 µM.
On the same count and under the same terms, the value for `CS(=O)(=O)N1CCC[C@@H](Nc2ncc3nc(Nc4c(F)cc(C#N)cc4Cl)n([C@H]4CC[C@@H](C(N)=O)CC4)c3n2)C1` [Example 704, (1S,4s)-4-(8-(2-chloro-4-cyano-6-fluorophenylamino)-2-((R)-1-(methylsulfonyl)piperidin-3-ylamino)-9H-purin-9-yl)cyclohexanecarboxamide] was > 1 µM; that for `NC(=O)[C@H]1CC[C@@H](n2c(Nc3c(Cl)cc(F)cc3Cl)nc3cnc(N[C@@H]4CCCN(Cc5ccccc5)C4)nc32)CC1` [Example 759, (1S,4s)-4-(2-((R)-1-benzylpiperidin-3-ylamino)-8-(2,6-dichloro-4-fluorophenylamino)-9H-purin-9-yl)cyclohexanecarboxamide] was > 1 µM.
For the compound `NC(=O)[C@H]1CC[C@@H](n2c(Nc3c(Cl)cc(Br)cc3Cl)nc3cnc(NC4CCOCC4)nc32)CC1` [Example 690, (1s,4s)-4-(8-(4-bromo-2,6-dichlorophenylamino)-2-(tetrahydro-2H-pyran-4-ylamino)-9H-purin-9-yl)cyclohexanecarboxamide], the IC50 is < 0.25 µM.

The same assay, now with this note: Lox-IMVI melanoma cell line, anti-proliferative assay; read-out: Activity (IC50 activity level).
For `C[C@]1(C(N)=O)CC[C@@H](n2c(Nc3c(F)cc(C#N)cc3F)nc3cnc(N[C@@H]4CCC[C@@H](O)C4)nc32)CC1` [Example 642, (1S,4s)-4-(8-(4-cyano-2,6-difluorophenylamino)-2-((1R,3R)-3-hydroxycyclohexylamino)-9H-purin-9-yl)-1-methylcyclohexanecarboxamide], the IC50 is > 1 µM.
